pEC50, pIC50, pKd: −log10 of the molar value. Where two headings read alike, the source gives them in different places.
Columns and labels:
BCL6 BTB domain = BCL6 BTB domain (Homo sapiens (Human), UniProt P41182); experiment: Surface plasmon resonance (SPR) assay; format: binding; details: BCL6 BTB domain captured on SA chip, single cycle kinetics
[1] = test system: BCL6 reporter construct (3xBCL6-TK-Luc) in SuDHL4 cells; experiment: Cell-based luciferase assay; details: for pEC50: read-out: Luciferase-Assay EC50, SuDHL4-3xBCL6-TK-Luc cells, two days, high dose 10 uM; for EC50: Homo sapiens, SU-DHL-4, 48 h, read-out: Luciferase-Assay EC50, uM), SuDHL4-3xBCL6-TK-Luc cells, two days, high dose 10 uM
Procedure: Cell-Based Luciferase Assay
A BCL6 reporter construct containing three copies of the consensus BCL6 binding site, the TK promoter, and the firefly luciferase gene was stably expressed in SuDHL4 cells after lentivirus infection and selection with Blasticidin. SuDHL4-3×BCL6-TK-Luc cells were seeded into a Viewplate 384-well assay dish at 15,000 cells/well in 25 ul medium (Alpha-MEM high glucose containing 10% FBS, 25 mM HEPES, […] GlutaMAX, 100 ug/ml Normocin, and […] Gentamycin, Invitrogen). A HP D300 digital dispenser was used to dose cells with DMSO or test compounds across a 10-point range of concentrations (high dose of 10 uM), and cultures were grown in a humidified 5% CO2 incubator at 37° C. After two days, plates were removed from the incubator and equilibrated to room temperature. An equal volume of neolite reporter gene assay reagent was added to each well, and samples were processed according to manufacturer's instructions (Perkin Elmer). Luminescent signal was measured using an Envision plate reader equipped with a US-Luminescence detector.

Karpas422 cells = experiment: Tumor cell growth inhibition assay; format: cell-based; details: for pIC50: read-out: Tumor Growth Inhibition in Karpas-422 (IC50), Karpas422 cells, six days, ATPlite; for IC50: Homo sapiens, KARPAS-422, 144 h, read-out: Tumor Growth Inhibition in Karpas-422 (IC50, uM), Karpas422 cells, six days, ATPlite
Procedure: Tumor Cell Growth inhibition Assay
Karpas422 cells were seeded into a 96-well plate at 2,000 cells/well in 150 ul medium (Alpha-MEM containing 10% FBS, […] Normocin, and […] Gentamycin, Invitrogen). A HP D300 digital dispenser was used to dose cells with DMSO or test compounds across a 10-point range of concentrations (high dose of 5 uM), and cultures were grown in a humidified 5% CO2 incubator at 37° C. After six days, plates were removed from incubator and equilibrated to room temperature. An equal volume of ATPlite assay reagent was added to each well, and samples were processed according to manufacturer's instructions (Perkin Elmer). Luminescent signal was measured using an Envision plate reader equipped with a US-Luminescence detector.

SMILES	pKd (BCL6 BTB domain)	pEC50 [1]	pIC50 (Karpas422 cells)	EC50 [1]	IC50 (Karpas422 cells)
CN(C1CCC(c2cc(NC(=O)Cn3cc(-c4cc(Cl)c(O)c(C(N)=O)c4)c4c(=O)n(C)cnc43)c(Cl)cn2)C1)S(C)(=O)=O (stereo not drawn) [Compound I-149]	7.79	6.14	6.21		
COC[C@@H]1COCCN1c1cc(NC(=O)Cn2cc(-c3cc(Cl)c(O)c(C(N)=O)c3)c3c(=O)n(C)cnc32)c(Cl)cn1 [Compound I-150]	7.89			0.184 µM	0.124 µM
COC[C@H]1COCCN1c1cc(NC(=O)Cn2cc(-c3cc(Cl)c(O)c(C(N)=O)c3)c3c(=O)n(C)cnc32)c(Cl)cn1 [Compound I-151]	7.97			0.168 µM	0.144 µM
Cn1cnc2c(c(-c3cc(Cl)c(O)c(C(N)=O)c3)cn2CC(=O)Nc2cc(N3Cc4ccncc4C3)ncc2Cl)c1=O [Compound I-152]	7.68			0.168 µM	0.134 µM
COc1cc(-c2cn(CC(=O)Nc3cc(N4CCOC[C@@H]4C)ncc3Cl)c3ncn(C)c(=O)c23)cc(C(N)=O)c1O [Compound I-153]	8.38			0.313 µM	0.176 µM
Cn1cnc2c(c(-c3cc(Cl)c(O)c(C(N)=O)c3)cn2CC(=O)Nc2cc(N3CC4CC3CO4)ncc2Cl)c1=O (stereo not drawn) [Compound I-154]	7.47			0.469 µM	0.559 µM
Cn1cnc2c(c(-c3cc(Cl)c(O)c(C(N)=O)c3)cn2CC(=O)Nc2cc(N3CC4CC4C3)ncc2Cl)c1=O (stereo not drawn) [Compound I-155]	7.49			0.923 µM	1.55 µM
Cn1cnc2c(c(-c3cc(Cl)c(O)c(C(N)=O)c3)cn2CC(=O)Nc2cc(N3CCCC4(CCOCC4)C3)ncc2Cl)c1=O [Compound I-156]	7.30			0.941 µM	0.576 µM
C[C@H]1COCCN1c1cc(NC(=O)Cn2cc(-c3cc(F)c(O)c(C(N)=O)c3)c3c(=O)n(C)cnc32)c(Cl)cn1 [Compound I-157]	8.21			0.18 µM	0.148 µM
Cn1cnc2c(c(-c3cc(F)c(O)c(C(N)=O)c3)cn2CC(=O)Nc2cc(N3C[C@H]4CCO[C@H]4C3)ncc2Cl)c1=O [Compound I-158]	8.75			1.01 µM	0.249 µM
Cc1nc2cc(Cl)c(NC(=O)Cn3cc(-c4cc(F)c(O)c(C(N)=O)c4)c4c(=O)n(C)cnc43)cc2o1 [Compound I-159]	7.32			0.282 µM	0.282 µM
Cc1nc2cc(Cl)c(NC(=O)Cn3cc(-c4cc(F)c(O)c(C(N)=O)c4)c4c(=O)n(C)cnc43)cc2s1 [Compound I-160]	7.41			0.396 µM	0.507 µM
C[C@H]1COCCN1c1cc(NC(=O)Cn2cc(-c3cc(C(N)=O)c(O)cc3F)c3c(=O)n(C)cnc32)c(Cl)cn1 [Compound I-161]	6.94			0.971 µM	1.29 µM
Cn1cnc2c(c(-c3cc(C(N)=O)c(O)cc3F)cn2CC(=O)Nc2cc(N3CC4CCC(C3)O4)ncc2Cl)c1=O [Compound I-162]	7.07			0.676 µM	0.643 µM
Cn1cnc2c(c(-c3cc(C(N)=O)c(O)cc3F)cn2CC(=O)Nc2cc(N3C[C@H]4CCO[C@H]4C3)ncc2Cl)c1=O [Compound I-163]	7.30			0.572 µM	0.93 µM
COC[C@H]1COCCN1c1cc(NC(=O)Cn2cc(-c3cc(Cl)c(O)c(C(N)=O)c3)c3c(=O)[nH]cnc32)c(Cl)cn1 [Compound I-164]	8.11			0.601 µM	0.251 µM
C[C@@H]1CN(c2cc(NC(=O)Cn3cc(-c4cc(Cl)c(O)c(C(N)=O)c4)c4c(=O)[nH]cnc43)c(Cl)cn2)C[C@H](C)O1 [Compound I-166]	7.82			0.184 µM	0.0862 µM
C[C@H]1COCCN1c1cc(NC(=O)Cn2cc(-c3cc(C(N)=O)c(O)c(Cl)c3F)c3c(=O)n(C)cnc32)c(Cl)cn1 [Compound I-167]	6.52			2.81 µM	2.34 µM
COc1c(O)c(C(N)=O)cc(-c2cn(CC(=O)Nc3cc(N4CCOC[C@@H]4C)ncc3Cl)c3ncn(C)c(=O)c23)c1F [Compound I-168]	7.13			1.3 µM	0.769 µM
Cn1cnc2c(c(-c3cc(C(N)=O)c(O)c(Cl)c3F)cn2CC(=O)Nc2cc(N3CCOCC3)ncc2Cl)c1=O [Compound I-169]	6.69			1.96 µM	1.89 µM

SMILES	pKd (BCL6 BTB domain)	pEC50 [1]	pIC50 (Karpas422 cells)	EC50 [1]	IC50 (Karpas422 cells)
C[C@@H]1CN(c2cc(NC(=O)Cn3cc(-c4cc(C(N)=O)c(O)c(Cl)c4F)c4c(=O)n(C)cnc43)c(Cl)cn2)C[C@H](C)O1 [Compound I-170]	6.43		5.00	2.14 µM	
COc1c(O)c(C(N)=O)cc(-c2cn(CC(=O)Nc3cc(N4CCOCC4)ncc3Cl)c3ncn(C)c(=O)c23)c1F [Compound I-171]	7.00			1.2 µM	1.04 µM
COc1c(O)c(C(N)=O)cc(-c2cn(CC(=O)Nc3cc(N4C[C@@H](C)O[C@@H](C)C4)ncc3Cl)c3ncn(C)c(=O)c23)c1F [Compound I-172]	6.78			0.797 µM	1.34 µM
Cn1cnc2c(c(-c3cc(Cl)c(O)c(C(N)=O)c3)cn2CC(=O)Nc2cn3ccnc3cc2Cl)c1=O [Compound I-173]	6.70			44.6 µM	5.72 µM
Cn1cnc2c(c(-c3cc(Cl)c(O)c(C(N)=O)c3)cn2CC(=O)Nc2cc3nccn3cc2Cl)c1=O [Compound I-174]	5.53			10 µM	10 µM
Cn1cnc2c(c(-c3cc(F)c(O)c(C(N)=O)c3)cn2CC(=O)Nc2cc(N3CC4CCC(C3)O4)ncc2Cl)c1=O [Compound I-176]	8.22			0.239 µM	0.137 µM
CN1CCOC2(CCN(c3cc(NC(=O)Cn4cc(-c5cc(F)c(O)c(C(N)=O)c5)c5c(=O)n(C)cnc54)c(Cl)cn3)C2)C1 (stereo not drawn) [Compound I-177]	8.23			0.629 µM	0.331 µM
Cn1cnc2c(c(-c3cc(C(N)=O)c(O)c(F)c3F)cn2CC(=O)Nc2cc(N3CCOCC3)ncc2Cl)c1=O [Compound I-178]	7.21			0.96 µM	0.877 µM
C[C@@H]1CN(c2cc(NC(=O)Cn3cc(-c4cc(C(N)=O)c(O)c(F)c4F)c4c(=O)n(C)cnc43)c(Cl)cn2)C[C@H](C)O1 [Compound I-179]	7.11			0.612 µM	0.681 µM
C[C@H]1COCCN1c1cc(NC(=O)Cn2cc(-c3cc(C(N)=O)c(O)c(F)c3F)c3c(=O)n(C)cnc32)c(Cl)cn1 [Compound I-180]	7.34			1.37 µM	2.18 µM
Cn1cnc2c(c(-c3cc(Cl)c(O)c(C(N)=O)c3)cn2CC(=O)Nc2cc3cnn(C)c3cc2Cl)c1=O [Compound I-181]	6.21			33 µM	10 µM
Cn1cc2cc(NC(=O)Cn3cc(-c4cc(Cl)c(O)c(C(N)=O)c4)c4c(=O)n(C)cnc43)c(Cl)cc2n1 [Compound I-182]	7.06			1.41 µM	1.03 µM
CN1CCc2cc(NC(=O)Cn3cc(-c4cc(Cl)c(O)c(C(N)=O)c4)c4c(=O)n(C)cnc43)c(Cl)cc21 [Compound I-183]	6.66			3.91 µM	10 µM
CN1CCOC2(CCN(c3cc(NC(=O)Cn4cc(-c5cc(C(N)=O)c(O)cc5F)c5c(=O)n(C)cnc54)c(Cl)cn3)C2)C1 (stereo not drawn) [Compound I-184]	7.43			0.348 µM	0.26 µM
Cn1cnc2c(c(-c3cc(Cl)c(O)c(C(N)=O)c3)cn2CC(=O)Nc2c(Cl)cnc(N3CCOCC3)c2F)c1=O [Compound I-185]	6.93		5.66	3.44 µM	
CN1CCN(c2cc(NC(=O)Cn3cc(-c4cc(C(N)=O)c(O)c(Cl)c4F)c4c(=O)n(C)cnc43)c(Cl)cn2)CC1 [Compound I-188]	6.36			4.75 µM	2.95 µM
COc1c(O)c(C(N)=O)cc(-c2cn(CC(=O)Nc3cc(N4CCN(C)CC4)ncc3Cl)c3ncn(C)c(=O)c23)c1F [Compound I-189]	6.84			1.69 µM	2.19 µM
Cn1cnc2c(c(-c3cc(Cl)c(O)c(C(N)=O)c3)cn2CC(=O)Nc2c(Cl)cnc(N3CCOCC3)c2F)c1=O [Compound I-191]	6.91	5.27	5.33		
C[C@@H]1CN(c2cc(NC(=O)Cn3cc(-c4cc(C(N)=O)c(O)c(Cl)c4F)c4c(=O)n(C)cnc43)c(Cl)cn2)C[C@H](C)O1 [Compound I-192]	6.12	5.40	5.91		

Reference: US11518764B2, “Substituted heteroaryls as inhibitors of the BCL6 BTB domain protein-protein interaction” (Ontario Institute for Cancer Research (OICR), priority 2018, dated 2022)
